Measured values published in patent US20230085307A1, “PYRIDAZINONE COMPOUND AND HERBICIDE” (NISSAN CHEMICAL CORPORATION, priority 2019, published 2023).

Experiments:
windgrass [1] = assay: Test Example 4: herbicidal effect by soil treatment (Table 19, symbol L); type: in vivo, windgrass (Apera spica-venti); conditions: amount of applied herbicide 320 g/ha
Method in brief: (§1)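 Three weeks of greenhouse growth at 25° C. to 30° C. followed a uniform surface spray of water-diluted emulsion at a predetermined herbicide amount. Seeds had been sown beforehand under about 1.5 cm of sterilized diluvial soil. Grading followed criteria set out in an earlier test.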

barnyard grass [2] = assay: Test Example 3: herbicidal effect by foliage application, Wagner pot (Table 18, symbol H); type: in vivo, barnyard grass (Echinochloa crus-galli)
Method in brief: (§2)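 Plants were sown in alluvial soil held under 0.1–0.5 cm standing water and grown 14 days in a greenhouse at 25–30 °C. An emulsifiable formulation, water-diluted to the set dose, was then sprayed onto the foliage, and effects were scored three weeks later using previously defined criteria.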

Chinese sprangletop = assay: Test Example 3: herbicidal effect by foliage application, Wagner pot (Table 18, symbol D); type: in vivo, chinese sprangletop (Leptochloa chinensis)
Method in brief: as §2

blackgrass [3] = assay: Test Example 5: herbicidal effect by foliage application, plastic box (Table 20, symbol J); type: in vivo, blackgrass (Alopecurus myosuroides); conditions: foliage application, 320 g/ha
Method in brief: (§3)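 Plants sown in sterilized diluvial soil and grown 14 days in a greenhouse at 25° C to 30° C, then sprayed on the foliage with the compound's emulsion diluted in water to a predetermined herbicide amount. Injury to weeds and crops scored three weeks after application on a visual rating scale.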

green foxtail [4] = assay: Test Example 4: herbicidal effect by soil treatment (Table 19, symbol G); type: in vivo, green foxtail (Setaria viridis); conditions: amount of applied herbicide 320 g/ha
Method in brief: as §1

southern crabgrass [5] = assay: Test Example 5: herbicidal effect by foliage application, plastic box (Table 20, symbol F); type: in vivo, southern crabgrass (Digitaria ciliaris); conditions: foliage application, 320 g/ha
Method in brief: as §3

Japanese bulrush = assay: Test Example 1: herbicidal activity, application before weed generation under submerged conditions (Table 16, symbol B); type: in vivo, Japanese bulrush (Schoenoplectus juncoides)
Method in brief: (§4)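 Emulsion formulation, water-diluted to set dose, was put onto the flooded surface (4 cm depth, alluvial soil) the same day weeds were sown and 2.5-leaf rice transplanted. After 3 weeks at 25-30 °C under glass, each species was rated 0 (≤5% kill) to 5 (≥90% kill).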

redroot pigweed [6] = assay: Test Example 4: herbicidal effect by soil treatment (Table 19, symbol N); type: in vivo, redroot pigweed (Amaranthus retroflexus); conditions: amount of applied herbicide 320 g/ha
Method in brief: as §1

green foxtail [7] = assay: Test Example 5: herbicidal effect by foliage application, plastic box (Table 20, symbol G); type: in vivo, green foxtail (Setaria viridis); conditions: foliage application, 320 g/ha
Method in brief: as §3

velvetleaf [8] = assay: Test Example 5: herbicidal effect by foliage application, plastic box (Table 20, symbol M); type: in vivo, velvetleaf (Abutilon theophrasti); conditions: foliage application, 320 g/ha
Method in brief: as §3

late watergrass = assay: Test Example 1: herbicidal activity, application before weed generation under submerged conditions (Table 16, symbol A); type: in vivo, late watergrass (Echinochloa oryzicola)
Method in brief: as §4

lambsquarters [9] = assay: Test Example 5: herbicidal effect by foliage application, plastic box (Table 20, symbol O); type: in vivo, lambsquarters (Chenopodium album); conditions: foliage application, 320 g/ha
Method in brief: as §3

Italian ryegrass [10] = assay: Test Example 5: herbicidal effect by foliage application, plastic box (Table 20, symbol K); type: in vivo, Italian ryegrass (Lolium multiflorum); conditions: foliage application, 320 g/ha
Method in brief: as §3

blackgrass [11] = assay: Test Example 4: herbicidal effect by soil treatment (Table 19, symbol J); type: in vivo, blackgrass (Alopecurus myosuroides); conditions: amount of applied herbicide 320 g/ha
Method in brief: as §1

persian speedwell [12] = assay: Test Example 4: herbicidal effect by soil treatment (Table 19, symbol R); type: in vivo, Persian speedwell (Veronica persica); conditions: amount of applied herbicide 320 g/ha
Method in brief: as §1

wild oat [13] = assay: Test Example 4: herbicidal effect by soil treatment (Table 19, symbol I); type: in vivo, wild oat (Avena fatua); conditions: amount of applied herbicide 320 g/ha
Method in brief: as §1

barnyard grass [14] = assay: Test Example 4: herbicidal effect by soil treatment (Table 19, symbol H); type: in vivo, barnyard grass (Echinochloa crus-galli); conditions: amount of applied herbicide 320 g/ha
Method in brief: as §1

chickweed [15] = assay: Test Example 5: herbicidal effect by foliage application, plastic box (Table 20, symbol P); type: in vivo, common chickweed (Stellaria media); conditions: foliage application, 320 g/ha
Method in brief: as §3

lambsquarters [16] = assay: Test Example 4: herbicidal effect by soil treatment (Table 19, symbol O); type: in vivo, lambsquarters (Chenopodium album); conditions: amount of applied herbicide 320 g/ha
Method in brief: as §1

chickweed [17] = assay: Test Example 4: herbicidal effect by soil treatment (Table 19, symbol P); type: in vivo, common chickweed (Stellaria media); conditions: amount of applied herbicide 320 g/ha
Method in brief: as §1

wild oat [18] = assay: Test Example 5: herbicidal effect by foliage application, plastic box (Table 20, symbol I); type: in vivo, wild oat (Avena fatua); conditions: foliage application, 320 g/ha
Method in brief: as §3

persian speedwell [19] = assay: Test Example 5: herbicidal effect by foliage application, plastic box (Table 20, symbol R); type: in vivo, Persian speedwell (Veronica persica); conditions: foliage application, 320 g/ha
Method in brief: as §3

velvetleaf [20] = assay: Test Example 4: herbicidal effect by soil treatment (Table 19, symbol M); type: in vivo, velvetleaf (Abutilon theophrasti); conditions: amount of applied herbicide 320 g/ha
Method in brief: as §1

windgrass [21] = assay: Test Example 5: herbicidal effect by foliage application, plastic box (Table 20, symbol L); type: in vivo, windgrass (Apera spica-venti); conditions: foliage application, 320 g/ha
Method in brief: as §3

barnyard grass [22] = assay: Test Example 5: herbicidal effect by foliage application, plastic box (Table 20, symbol H); type: in vivo, barnyard grass (Echinochloa crus-galli); conditions: foliage application, 320 g/ha
Method in brief: as §3

Italian ryegrass [23] = assay: Test Example 4: herbicidal effect by soil treatment (Table 19, symbol K); type: in vivo, Italian ryegrass (Lolium multiflorum); conditions: amount of applied herbicide 320 g/ha
Method in brief: as §1

rice flat sedge = assay: Test Example 3: herbicidal effect by foliage application, Wagner pot (Table 18, symbol E); type: in vivo, rice flat sedge (Cyperus iria)
Method in brief: as §2

redroot pigweed [24] = assay: Test Example 5: herbicidal effect by foliage application, plastic box (Table 20, symbol N); type: in vivo, redroot pigweed (Amaranthus retroflexus); conditions: foliage application, 320 g/ha
Method in brief: as §3

southern crabgrass [25] = assay: Test Example 4: herbicidal effect by soil treatment (Table 19, symbol F); type: in vivo, southern crabgrass (Digitaria ciliaris); conditions: amount of applied herbicide 320 g/ha
Method in brief: as §1

oval-leafed pondweed = assay: Test Example 1: herbicidal activity, application before weed generation under submerged conditions (Table 16, symbol C); type: in vivo, oval-leafed pondweed (Monochoria vaginalis)
Method in brief: as §4

[26] = amount of applied herbicide 320 g/ha
[27] = evaluated three weeks after application

Cc1nn(C)c(=O)c(-c2c(-c3ccc(OC(C)C)cc3)sc3cc(Cl)ccc23)c1O [3-041]
L: windgrass, herbicidal effect grade (windgrass [1]): 0 (Herbicidal rate of 5% or less (almost no effect)) | herbicidal effect on barnyard grass (H) (barnyard grass [2]; 320 g/ha): 2 (Herbicidal rate of 20% or more and less than 40%) | herbicidal effect on Chinese sprangletop (D) (Chinese sprangletop; 320 g/ha): 0 (Herbicidal rate of 5% or less (almost no effect)) | J: blackgrass, herbicidal effect grade (blackgrass [3]; three weeks after application): 0 (Herbicidal rate of 5% or less (almost no effect)) | G: green foxtail, herbicidal effect grade (green foxtail [4]): 0 (Herbicidal rate of 5% or less (almost no effect)) | F: southern crabgrass, herbicidal effect grade (southern crabgrass [5]; three weeks after application): 0 (Herbicidal rate of 5% or less (almost no effect)) | Herbicidal effect, B: Japanese bulrush (Japanese bulrush; [26]): 0 (Herbicidal rate of 5% or less (almost no effect)) | N: redroot pigweed, herbicidal effect grade (redroot pigweed [6]): 0 (Herbicidal rate of 5% or less (almost no effect)) | G: green foxtail, herbicidal effect grade (green foxtail [7]; three weeks after application): 0 (Herbicidal rate of 5% or less (almost no effect)) | M: velvetleaf, herbicidal effect grade (velvetleaf [8]; three weeks after application): 0 (Herbicidal rate of 5% or less (almost no effect)) | Herbicidal effect, A: late watergrass (late watergrass; [26]): 2 (Herbicidal rate of 20% or more and less than 40%) | O: lambsquarters, herbicidal effect grade (lambsquarters [9]; three weeks after application): 1 (Herbicidal rate of 5% or more and less than 20%) | K: Italian ryegrass, herbicidal effect grade (Italian ryegrass [10]; three weeks after application): 0 (Herbicidal rate of 5% or less (almost no effect)) | J: blackgrass, herbicidal effect grade (blackgrass [11]): 0 (Herbicidal rate of 5% or less (almost no effect)) | R: persian speedwell, herbicidal effect grade (persian speedwell [12]): 2 (Herbicidal rate of 20% or more and less than 40%) | I: wild oat, herbicidal effect grade (wild oat [13]): 0 (Herbicidal rate of 5% or less (almost no effect)) | H: barnyard grass, herbicidal effect grade (barnyard grass [14]): 0 (Herbicidal rate of 5% or less (almost no effect)) | P: chickweed, herbicidal effect grade (chickweed [15]; three weeks after application): 3 (Herbicidal rate of 40% or more and less than 70%) | O: lambsquarters, herbicidal effect grade (lambsquarters [16]): 0 (Herbicidal rate of 5% or less (almost no effect)) | P: chickweed, herbicidal effect grade (chickweed [17]): 1 (Herbicidal rate of 5% or more and less than 20%) | I: wild oat, herbicidal effect grade (wild oat [18]; three weeks after application): 0 (Herbicidal rate of 5% or less (almost no effect)) | R: persian speedwell, herbicidal effect grade (persian speedwell [19]; three weeks after application): 5 (Herbicidal rate of 90% or more (almost completely withered)) | M: velvetleaf, herbicidal effect grade (velvetleaf [20]): 0 (Herbicidal rate of 5% or less (almost no effect)) | L: windgrass, herbicidal effect grade (windgrass [21]; three weeks after application): 0 (Herbicidal rate of 5% or less (almost no effect)) | H: barnyard grass, herbicidal effect grade (barnyard grass [22]; three weeks after application): 0 (Herbicidal rate of 5% or less (almost no effect)) | K: Italian ryegrass, herbicidal effect grade (Italian ryegrass [23]): 0 (Herbicidal rate of 5% or less (almost no effect)) | herbicidal effect on rice flat sedge (E) (rice flat sedge; 320 g/ha): 1 (Herbicidal rate of 5% or more and less than 20%) | N: redroot pigweed, herbicidal effect grade (redroot pigweed [24]; three weeks after application): 2 (Herbicidal rate of 20% or more and less than 40%) | F: southern crabgrass, herbicidal effect grade (southern crabgrass [25]): 0 (Herbicidal rate of 5% or less (almost no effect)) | Herbicidal effect, C: oval-leafed pondweed (oval-leafed pondweed; [26]): 0 (Herbicidal rate of 5% or less (almost no effect))

CCCC(=O)Oc1c(C)nn(C)c(=O)c1-c1c(-c2cccc(C(F)(F)F)c2)sc2ccc(F)cc12 [2-232]
herbicidal effect on L: windgrass (windgrass [1]): 0 (Herbicidal rate of 5% or less (almost no effect)) | herbicidal effect on H: barnyard grass (barnyard grass [2]; [26]): 4 (Herbicidal rate of 70% or more and less than 90%) | herbicidal effect on D: Chinese sprangletop (Chinese sprangletop; [26]): 5 (Herbicidal rate of 90% or more (almost completely withered)) | herbicidal effect on J: blackgrass (criteria 0-5) (blackgrass [3]; [27]): 0 (Herbicidal rate of 5% or less (almost no effect)) | herbicidal effect on G: green foxtail (green foxtail [4]): 0 (Herbicidal rate of 5% or less (almost no effect)) | herbicidal effect on F: southern crabgrass (criteria 0-5) (southern crabgrass [5]; [27]): 0 (Herbicidal rate of 5% or less (almost no effect)) | Herbicidal effect on B: Japanese bulrush (grade 0-5) (Japanese bulrush; 320 g/ha applied herbicide): 0 (Herbicidal rate of 5% or less (almost no effect)) | herbicidal effect on N: redroot pigweed (redroot pigweed [6]): 0 (Herbicidal rate of 5% or less (almost no effect)) | herbicidal effect on G: green foxtail (criteria 0-5) (green foxtail [7]; [27]): 0 (Herbicidal rate of 5% or less (almost no effect)) | herbicidal effect on M: velvetleaf (criteria 0-5) (velvetleaf [8]; [27]): 5 (Herbicidal rate of 90% or more (almost completely withered)) | Herbicidal effect on A: late watergrass (grade 0-5) (late watergrass; 320 g/ha applied herbicide): 3 (Herbicidal rate of 40% or more and less than 70%) | herbicidal effect on O: lambsquarters (criteria 0-5) (lambsquarters [9]; [27]): 3 (Herbicidal rate of 40% or more and less than 70%) | herbicidal effect on K: Italian ryegrass (criteria 0-5) (Italian ryegrass [10]; [27]): 0 (Herbicidal rate of 5% or less (almost no effect)) | herbicidal effect on J: blackgrass (blackgrass [11]): 0 (Herbicidal rate of 5% or less (almost no effect)) | herbicidal effect on R: persian speedwell (persian speedwell [12]): 3 (Herbicidal rate of 40% or more and less than 70%) | herbicidal effect on I: wild oat (wild oat [13]): 0 (Herbicidal rate of 5% or less (almost no effect)) | herbicidal effect on H: barnyard grass (barnyard grass [14]): 0 (Herbicidal rate of 5% or less (almost no effect)) | herbicidal effect on P: chickweed (criteria 0-5) (chickweed [15]; [27]): 5 (Herbicidal rate of 90% or more (almost completely withered)) | herbicidal effect on O: lambsquarters (lambsquarters [16]): 0 (Herbicidal rate of 5% or less (almost no effect)) | herbicidal effect on P: chickweed (chickweed [17]): 3 (Herbicidal rate of 40% or more and less than 70%) | herbicidal effect on I: wild oat (criteria 0-5) (wild oat [18]; [27]): 0 (Herbicidal rate of 5% or less (almost no effect)) | herbicidal effect on R: persian speedwell (criteria 0-5) (persian speedwell [19]; [27]): 5 (Herbicidal rate of 90% or more (almost completely withered)) | herbicidal effect on M: velvetleaf (velvetleaf [20]): 0 (Herbicidal rate of 5% or less (almost no effect)) | herbicidal effect on L: windgrass (criteria 0-5) (windgrass [21]; [27]): 1 (Herbicidal rate of 5% or more and less than 20%) | herbicidal effect on H: barnyard grass (criteria 0-5) (barnyard grass [22]; [27]): 0 (Herbicidal rate of 5% or less (almost no effect)) | herbicidal effect on K: Italian ryegrass (Italian ryegrass [23]): 0 (Herbicidal rate of 5% or less (almost no effect)) | herbicidal effect on E: rice flat sedge (rice flat sedge; [26]): 5 (Herbicidal rate of 90% or more (almost completely withered)) | herbicidal effect on N: redroot pigweed (criteria 0-5) (redroot pigweed [24]; [27]): 5 (Herbicidal rate of 90% or more (almost completely withered)) | herbicidal effect on F: southern crabgrass (southern crabgrass [25]): 0 (Herbicidal rate of 5% or less (almost no effect)) | Herbicidal effect on C: oval-leafed pondweed (grade 0-5) (oval-leafed pondweed; 320 g/ha applied herbicide): 0 (Herbicidal rate of 5% or less (almost no effect))
